In patent US20010051646A1, “Method for the improvement of islet signaling in diabetes mellitus and for its prevention” (priority 2000, published 2001):
Marks after values point to notes of the source that are not given here.

How the values were obtained:
healthy male volunteers = assay: First-human study of P32/98 with extended OGTT: active GLP-1, insulin and glucose; type: in vivo; settings: for Maximum change in GLP-1, active (0-12h, median) / Maximum change in glucose (0-12h, median) / Maximum change in insulin (0-12h, median): OGTT; for Increase of mean insulin concentration after 75 g glucose at 10 min post-dose: within 40-55 min
Text: The 36 healthy male subjects were divided into 3 individual groups with each group containing 12 subjects. […] The subjects in all groups who were receiving placebo were given placebo at both dosing intervals.
Each subject participated in the pre-study and experimental phase, which were separated by a washout phase of at least 5 days. The follow-up examination was done at least 7 days after the last dose of study drug. The study procedures of the six periods were identical, except for the dose under investigation.
At each glucose tolerance test, subjects ingested 300 mL of a mono-/disaccharid solution equivalent to 75 g glucose (Dextro®O.G.-T, Boehringer Mannheim, FRG).
An extended OGTT was performed on Day 1 of each dosing period. Subjects ingested 300 mL of a mono-/disaccharid solution equivalent to 75 g glucose. […] Additionally other pharmacodynamic assessments that are well known in the art were taken.
Insulin: 4.7 ml blood was collected into 4.9 ml EDTA-tubes. Samples were centrifuged (1500 g, 10 min) and stored frozen at −70° C. until laboratory analysis.
Glucose: 1.2 ml blood was collected into 1.2 ml sodium fluoride tubes. Plasma samples were centrifuged at 1500 g for 10 min and stored frozen at −70° C. until laboratory analysis. GLP-1: 2.7 ml blood was collected in EDTA tubes and placed on ice or refrigerated, to which a dipeptidyl peptidase IV-inhibitor was added. The inhibitor was prepared in advance by researchers. Blood was collected in tubes and centrifuged immediately at 1000 g for 10 min in refrigerated centrifuge or the blood was placed in ice and centrifuged within 1 hour and aliquoted into equal samples. Blood was stored in appropriate aliquots at −70° C. (to avoid multiple freezing/thawing cycles) until laboratory analysis.

Male Zucker fa/fa rats = assay: Repeated once-daily oral dosing: morning blood glucose and plasma insulin; type: in vivo, rat
Procedure: The parameters monitored were morning blood glucose and plasma insulin levels. In a day-night profile, glycemia and insulinaemia were monitored from day 16 to day 17. An OGTT was performed finally on day 21 to monitor blood glucose and plasma insulin kinetics to assess changes in glucose tolerance. Glibenclamide (DAB 1996; R011150/33372) was donated by Berlin-Chemie (Berlin, Germany). Male Zucker (fa/fa) rats of the body weight class of 300 g were purchased from Charles River (Sulzfeld, Germany).
Housing Conditions: Animals were kept single-housed under conventional conditions with controlled temperature (22±2° C.) on a 12/12 hours light/dark cycle (light on at 06:00 a.m.). Standard pellets (ssniff®, Soest, Germany) and tap water acidified with HCl were allowed ad libitum.
Catheterization of Carotid Artery: After one week of adaptation carotid catheters were implanted in the rats under general anesthesia (injection of 0.25 ml/kg i.p. Rompun® [2%], Bayer, Germany) and 0.5 ml/kg i.p. Velonarkon® (Arzneimittelwerk Dresden, Germany). The animals were allowed to recover for one week. The catheter was flushed with heparin-saline (100 IU/ml) three times per week.
Thereafter, the non-diabetic Wistar rats were treated orally once daily with RP (5 mg/kg b.w.) or TP (21.61 mg/kg b.w.) and the diabetic Zucker rats were treated orally once daily with RP (1 mg/kg b.w.) or TP (21.61 mg/kg b.w.) for 21 days at 05.00 p.m. (before regular food intake in the dark phase). The controls were given 1% cellulose solution orally (5 ml/kg). Blood samples were taken every morning at 07.30 a.m. from tail veins for measurement of blood glucose and plasma insulin. The last blood samples of this part of the program were taken at 07.30 a. m. on the 15th day to measure blood glucose and plasma insulin. The oral drug therapy was continued for one week. Recording the day-night profile under the above therapy blood glucose (Δt=3 h) and plasma insulin (Δt=3-6 h) were monitored from day 16 (at 05.00 p.m. beginning) to day 17 (at 02.00 p.m. end).
Blood glucose: Glucose levels were measured using the glucose oxidase procedure (Super G Glukosemeβgerät; Dr. Müller Gerätebau, Freital, Germany).
Plasma insulin: Insulin concentrations were assayed by the antibody RIA method (LINCO Research, Inc. St. Charles, Mo., USA).

With “isoleucyl thiazolidine hemifumarate [P32/98]” the “Baseline-corrected mean peak (Cmax) glucose concentration” value (“Baseline-corrected mean peak” below) (healthy male volunteers; 7.5 mg) was “exceeded 4.0 mmol/l”, the “Mean baseline-corrected glucose AUC” value (healthy male volunteers; 7.5 mg) was greater than 200 mmol·min/L and the “Maximum change in GLP-1, active (0-12h, median)” value (from here on “Maximum change in GLP-1, active”) (healthy male volunteers; 7.5 mg oral single dose) was 4.10 pmol/L. For the same substance, the “Maximum change in glucose (0-12h, median)” value (“Maximum change in glucose” for short) (healthy male volunteers; 7.5 mg oral single dose) was 4.66 mmol/L, the “Maximum change in insulin (0-12h, median)” value (shortened to “Maximum change in insulin”) (healthy male volunteers; 7.5 mg oral single dose) was 41.86 μIU/ml and the “Corrected AUC0→180 min of glucose concentrations after OGTT, Mean ± SD” value (“Corrected AUC0→180 min … Mean ± SD” below) (healthy male volunteers; 7.5 mg, periods 1-3) was 299.7 ± 111.4 mmol·min. For the same substance, the “Corrected Cmax of glucose concentrations 0-3 h after OGTT, Mean ± SD” value (shortened to “Corrected Cmax … Mean ± SD”) (healthy male volunteers; 7.5 mg, periods 1-3) was 4.94 ± 1.58 mmol, the “Corrected glucose AUC0→180 min, Estimate (ANOVA comparison versus placebo)” value (healthy male volunteers; 7.5 mg, periods 1-3) was 75.8 mmol·min and the “Corrected glucose Cmax, Estimate (ANOVA comparison versus placebo)” value (healthy male volunteers; 7.5 mg, periods 1-3) was 0.78 mmol. The “Baseline-corrected mean peak” value (healthy male volunteers; 15 mg) was “below 3.0 mmol/l”, the “Increase of group mean active GLP-1 concentration over pre-dose” value (healthy male volunteers; 15 mg) was 11.6 pmol/L and the “Mean baseline-corrected glucose AUC” value (healthy male volunteers; 15 mg) was “below 200 mmol*min/l”. The “Maximum change in GLP-1, active” value (healthy male volunteers; 15 mg oral single dose) was 10.00 pmol/L, the “Maximum change in glucose” value (healthy male volunteers; 15 mg oral single dose) was 2.43 mmol/L and the “Maximum change in insulin” value (healthy male volunteers; 15 mg oral single dose) was 29.67 μIU/ml. For the same substance, the “Mean changes of glucose concentration at maximum” value (healthy male volunteers; 15 mg, 60 mg and 240 mg dosing groups) was 1.71 to 3.41 mmol/L, the “Corrected AUC0→180 min … Mean ± SD” value (healthy male volunteers; 15 mg, periods 1-3) was 130.9 ± 125.2 mmol·min and the “Corrected Cmax … Mean ± SD” value (healthy male volunteers; 15 mg, periods 1-3) was 2.92 ± 1.10 mmol. The “Corrected glucose AUC0→180 min, Estimate (ANOVA comparison versus placebo)” value (healthy male volunteers; 15 mg, periods 1-3) was -93.0 mmol·min, the “Corrected glucose Cmax, Estimate (ANOVA comparison versus placebo)” value (healthy male volunteers; 15 mg, periods 1-3) was −1.24* mmol and the “Maximum change in GLP-1, active” value (healthy male volunteers; 30 mg oral single dose) was 10.60 pmol/L. The “Maximum change in glucose” value (healthy male volunteers; 30 mg oral single dose) was 3.38 mmol/L, the “Maximum change in insulin” value (healthy male volunteers; 30 mg oral single dose) was 59.84 μIU/ml and the “Corrected AUC0→180 min … Mean ± SD” value (healthy male volunteers; 30 mg, periods 1-3) was 116.1 ± 134.0 mmol·min. The “Corrected Cmax … Mean ± SD” value (healthy male volunteers; 30 mg, periods 1-3) was 3.26 ± 1.07 mmol, the “Corrected glucose AUC0→180 min, Estimate (ANOVA comparison versus placebo)” value (healthy male volunteers; 30 mg, periods 1-3) was -107.7 mmol·min and the “Corrected glucose Cmax, Estimate (ANOVA comparison versus placebo)” value (healthy male volunteers; 30 mg, periods 1-3) was -0.90 mmol. For the same substance, the “Increase of mean insulin concentration after 75 g glucose at 10 min post-dose” value (healthy male volunteers; 30 mg) was 56.92 μIU/ml, the “Maximum change in GLP-1, active” value (healthy male volunteers; 60 mg oral single dose) was 12.20 pmol/L and the “Maximum change in glucose” value (healthy male volunteers; 60 mg oral single dose) was 2.92 mmol/L. For the same substance, the “Maximum change in insulin” value (healthy male volunteers; 60 mg oral single dose) was 43.35 μIU/ml, the “Corrected AUC0→180 min … Mean ± SD” value (healthy male volunteers; 60 mg, periods 4-6) was 151.8 ± 99.2 mmol·min and the “Corrected Cmax … Mean ± SD” value (healthy male volunteers; 60 mg, periods 4-6) was 3.50 ± 1.66 mmol. For the same substance, the “Corrected glucose AUC0→180 min, Estimate (ANOVA comparison versus placebo)” value (healthy male volunteers; 60 mg, periods 4-6) was -101.1 mmol·min, the “Corrected glucose Cmax, Estimate (ANOVA comparison versus placebo)” value (healthy male volunteers; 60 mg, periods 4-6) was −1.41* mmol and the “Maximum change in GLP-1, active” value (healthy male volunteers; 120 mg oral single dose) was 11.10 pmol/L. The “Maximum change in glucose” value (healthy male volunteers; 120 mg oral single dose) was 2.39 mmol/L, the “Maximum change in insulin” value (healthy male volunteers; 120 mg oral single dose) was 28.63 μIU/ml and the “Corrected AUC0→180 min … Mean ± SD” value (healthy male volunteers; 120 mg, periods 4-6) was 126.7 ± 147.3 mmol·min. For the same substance, the “Corrected Cmax … Mean ± SD” value (healthy male volunteers; 120 mg, periods 4-6) was 3.09 ± 1.47 mmol, the “Corrected glucose AUC0→180 min, Estimate (ANOVA comparison versus placebo)” value (healthy male volunteers; 120 mg, periods 4-6) was −126-1* mmol*min/ and the “Corrected glucose Cmax, Estimate (ANOVA comparison versus placebo)” value (healthy male volunteers; 120 mg, periods 4-6) was −1.82** mmol. The “Increase of mean insulin concentration after 75 g glucose at 10 min post-dose” value (healthy male volunteers; 120 mg) was 30.12 μIU/ml, the “Baseline-corrected mean peak” value (healthy male volunteers; 240 mg) was “below 3.0 mmol/l” and the “Increase of group mean active GLP-1 concentration over pre-dose” value (healthy male volunteers; 240 mg) was 15.99 pmol/L. The “Mean baseline-corrected glucose AUC” value (healthy male volunteers; 240 mg) was “below 200 mmol*min/l”, the “Maximum change in GLP-1, active” value (healthy male volunteers; 240 mg oral single dose) was 14.50 pmol/L and the “Maximum change in glucose” value (healthy male volunteers; 240 mg oral single dose) was 1.73 mmol/L. The “Maximum change in insulin” value (healthy male volunteers; 240 mg oral single dose) was 33.36 μIU/ml, the “Corrected AUC0→180 min … Mean ± SD” value (healthy male volunteers; 240 mg, periods 4-6) was 24.7 ± 66.6 mmol·min and the “Corrected Cmax … Mean ± SD” value (healthy male volunteers; 240 mg, periods 4-6) was 1.99 ± 0.69 mmol. For the same substance, the “Corrected glucose AUC0→180 min, Estimate (ANOVA comparison versus placebo)” value (healthy male volunteers; 240 mg, periods 4-6) was −228.2*** mmol*min/, the “Corrected glucose Cmax, Estimate (ANOVA comparison versus placebo)” value (healthy male volunteers; 240 mg, periods 4-6) was −2.92*** mmol and the “Effect on active GLP-1” value (healthy male volunteers; 7.5-mg dose level) was “no effect discernible from placebo treatment”. The “Increase of glucose concentrations during the OGTT compared with placebo” value (healthy male volunteers; 15-240 mg) was “significantly lower increase”, the “Insulin concentrations following stimulation with 75 g glucose” value (healthy male volunteers; 120-240 mg) was “appeared to be decreased” and the Hyperinsulinemia (Male Zucker fa/fa rats; given once daily) was “reduced”. For the same substance, the Morning blood glucose (Male Zucker fa/fa rats; given once daily) was “normalized”, the “Time until morning blood glucose was reduced to a normal value” (Male Zucker fa/fa rats; once daily oral) was no more than 5 days and the “Plasma insulin during 14 days in comparison to the control animals” value (Male Zucker fa/fa rats; rat, in vivo) was “slightly decrease insulin concentration”.
